Assay results as given in patent US20160045606A1, “PARTIALLY-DENATURED PROTEIN HYDROGELS” (Northwestern University, priority 2014, published 2016).
Entries after “also recorded” stand apart in the source; their conditions may differ.

Experiments:
[1] = tested on: Human aortic smooth muscle cells (HASMC); assay: Scratch test migration assay; format: cell-based; conditions: cells exposed directly to 25 ng/mL atRA in media, 24 hr scratch wound, serum starved, vs negative control
Method: Human aortic smooth muscle cells (HASMC) (Lonza, Basel, Switzerland) (passage 5) were cultured in SmGM-2 media. All cells were cultured at 37° C. in a humidified incubator containing 5% CO2. HASMCs (seeding density 1×10^4 cells/cm2) were seeded onto TCP surfaces and grown until 90% confluent. Cell culture media was changed every 2 days until confluence after which serum-free SmGM-2 media was used to create a nutrient starved environment for 24 hrs. A vertical scratch was made with a sterile 200 uL pipette tip in the confluent HASMC layer, rinsed with warm PBS, and replaced with 1 mL SmGM-2 media. The underside of the dish was marked near the wound area to aid in identification. Wells were randomly placed into 4 groups which received either a 100 uL dose of eluted material from atRA loaded PBSA or TBSA release study at day 10, a 100 uL dose of 24 ng atRA dissolved in PBS, or a control 100 uL of PBS. A light microscope (Nikon Eclipse TE2000-U) was used to capture images using Image Pro 5.0 software (MediaCybernetics, Bethesda, Md.) of the wound area immediately at day 0 and at various times until the control wound closed at 24 hrs. Wound areas were determined using an automated wound area measurement macro with the ImageJ 1.43r software (NIH, Bethesda, Md.). The measurement of migration was determined by subtracting the cell-free area at day 0 from the cell-free area at 24 hrs. […]

F-form albumin = F-form albumin (Bos taurus, UniProt P02769); assay: atRA binding by tryptophan fluorescence quenching at 340 nm, BSA at pH 3.5; set-up: species or system bovine; conditions: pH 3.5, excitation 295 nm
Chain of F-form albumin (P02769 25-607): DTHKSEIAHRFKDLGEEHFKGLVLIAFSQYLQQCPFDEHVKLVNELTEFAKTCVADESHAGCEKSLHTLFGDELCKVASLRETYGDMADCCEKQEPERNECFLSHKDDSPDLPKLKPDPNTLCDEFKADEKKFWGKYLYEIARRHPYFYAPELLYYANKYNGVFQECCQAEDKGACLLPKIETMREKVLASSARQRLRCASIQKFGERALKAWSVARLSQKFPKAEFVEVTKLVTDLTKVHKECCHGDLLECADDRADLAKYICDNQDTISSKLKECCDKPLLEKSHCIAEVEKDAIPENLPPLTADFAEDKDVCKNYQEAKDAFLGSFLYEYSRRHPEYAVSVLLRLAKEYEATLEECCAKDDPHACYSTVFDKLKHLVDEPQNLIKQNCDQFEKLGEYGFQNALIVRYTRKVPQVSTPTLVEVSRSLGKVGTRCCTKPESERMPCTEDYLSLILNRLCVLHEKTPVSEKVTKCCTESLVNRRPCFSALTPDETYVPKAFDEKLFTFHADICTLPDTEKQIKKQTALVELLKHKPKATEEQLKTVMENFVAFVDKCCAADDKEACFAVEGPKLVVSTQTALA
Method: (§1) All trans retinoic acid (atRA, 82625, Sigma, St. Louis, 206 MO) was added to solutions of BSA with molar ratio concentrations including 0:1, 0.08:1, 0.1:1, 0.13:1, 0.2:1, 0.4:1, 0.8:1, 1.2:1, 1.6:1, and 2:1 (atRA:BSA). A baseline fluorescence intensity of BSA at pH 7.4 and 3.5 measured at 340 nm with excitation at 295 nm was recorded (n=4 for each molar ratio concentration) as reported in the literature (Maiti et al. Int J Biol Macromol. 2006; 38(3-5):197-202; herein incorporated by reference in its entirety) using the plate reader Tecan Safire II (Tecan, Maennedorf, Switzerland). Then, atRA binding to BSA at pH 7.4 and 3.5 was assessed immediately after the addition of atRA at the different molar ratios. For measuring atRA release from hydrogel disks, a higher molar ratio concentration of 8:1 (atRA:BSA) was used when incorporating atRA into BSA precursor solutions before gelation. Precursor solutions were processed as normal to fabricate atRA-loaded PBSA and TBSA hydrogel disks with a final volume of 0.5 mL. Disks were submerged in 10 mL PBS at 37° C. for atRA release studies. Eluates were collected and replaced at 1, 3, 6, 12, 24, 48, 72, 144, and 240 hour sampling times and fluorescence intensity of atRA at 340 nm and BSA at 280 nm was collected with a NanoDrop™ 2000 C Spectrophotometer (ThermoScientific™, Waltham, Mass.).

[2] = molecular target: N-form albumin (TRP 213 atRA binding site) (Homo sapiens, UniProt P02768); conditions: literature estimate (Maiti et al. 2006), TRP 213 site on N-form albumin; cited from earlier work
Chain of N-form albumin (TRP 213 atRA binding site) (P02768 25-609): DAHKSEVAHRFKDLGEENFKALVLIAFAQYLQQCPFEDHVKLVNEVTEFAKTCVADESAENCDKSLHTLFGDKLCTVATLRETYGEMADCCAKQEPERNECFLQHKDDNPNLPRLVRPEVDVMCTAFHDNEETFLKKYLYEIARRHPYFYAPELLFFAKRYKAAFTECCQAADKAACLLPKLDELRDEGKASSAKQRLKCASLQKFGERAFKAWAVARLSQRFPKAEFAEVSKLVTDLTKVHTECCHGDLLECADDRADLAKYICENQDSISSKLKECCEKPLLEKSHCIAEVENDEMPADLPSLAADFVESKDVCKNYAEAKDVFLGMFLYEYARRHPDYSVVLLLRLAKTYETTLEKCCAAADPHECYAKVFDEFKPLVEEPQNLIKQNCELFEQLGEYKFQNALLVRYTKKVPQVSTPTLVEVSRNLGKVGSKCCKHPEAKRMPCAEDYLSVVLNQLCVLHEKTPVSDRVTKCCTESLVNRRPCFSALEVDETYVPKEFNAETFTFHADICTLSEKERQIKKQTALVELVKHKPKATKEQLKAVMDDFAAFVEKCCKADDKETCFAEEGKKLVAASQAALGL

N-form albumin = N-form albumin (Bos taurus, UniProt P02769); assay: atRA binding by tryptophan fluorescence quenching at 340 nm, BSA at pH 7.4; set-up: species or system bovine
Chain of N-form albumin (P02769 25-607): as the sequence (P02769 25-607) above
Method: as §1

[3] = In vivo subcutaneous rat model (biocompatibility); set-up: species or system Sprague-Dawley rats; conditions: 0.5 mL subcutaneous injection
Method: Eight female Sprague-Dawley rats (Harlan Laboratories, Inc.) weighing 150-175 g were used for in vivo biocompatibility testing of the BSA gels. Four rats were randomly assigned into two groups for explant time points at 4 days and 4 weeks for evaluation of the acute and chronic inflammatory response. Animals were anesthetized using the inhalant machine Impact 6 (Vetequip Inc., Pleasanton, Calif.). Isofluorane was administered at a concentration of 2% with an oxygen flow rate of 2 L/min. Following anesthesia; the backs of the animals were shaved and then disinfected with […] followed by alcohol and a second […] wipe. Two incisions of approximately 1.5 cm in length were made at the implantation sites and subcutaneous pockets were created by blunt dissection in each location. 20 wt % Albumin hydrogels 184 (both PBSA and TBSA) were fabricated as described in the methods section 2.1 and were cut into disks (h=0.5 cm, r=0.6 cm) using a sterile biopsy punch. In one location, an acid leached 20 wt % PBSA gel disk was implanted into the subcutaneous pocket far from the incision site. At the other incision site, a 20 wt % TBSA gel disk was implanted. A control saline injection and pH 7.4 (20 wt %) BSA solution was injected into the back of the rat in the two remaining implantation sites. […]

CC1=C(/C=C/C(C)=C/C=C/C(C)=C/C(=O)O)C(C)(C)CCC1 [atRA, All trans retinoic acid]
HASMC migration [1]: inhibited; also recorded: significant (p<0.05) reduction in cell migration | tryptophan fluorescence signal at 340 nm upon addition of atRA (F-form albumin): rapidly quenched | binding energy [2]: -7.58 kcal/mol | fluorescence quenching as a fraction of the initial fluorescence signal (N-form albumin; N-form albumin compared with F-form albumin): greater fluorescence quenching than F-form albumin | tryptophan fluorescence signal at 340 nm upon addition of atRA (N-form albumin; N-form albumin, pH 7.4, excitation 295 nm): rapidly quenched

BSA solution: control 20 wt % bovine serum albumin solution at pH 7.4, injected subcutaneously
inflammatory response ([3]; 4 weeks): decreased significantly | inflammatory response (number of cells in the subcutaneous pocket) ([3]; 4 days, compared to saline control): increased general inflammatory response
